Patent publication US9603820B2, “Ornithine aminotransferase inhibition with GABA analogues for treatment of hepatocellular carcinoma” (Northwestern University, priority 2014, dated 2017)
Entries after “also recorded” stand apart in the source; their conditions may differ. Where two headings read alike, the source gives them in different places.

Assays:
OAT = molecular target: T1, OAT (Homo sapiens, UniProt P04181); conditions: prior art, FIG. 1; cited from earlier work
T1 sequence (P04181 36-439 limits assumed): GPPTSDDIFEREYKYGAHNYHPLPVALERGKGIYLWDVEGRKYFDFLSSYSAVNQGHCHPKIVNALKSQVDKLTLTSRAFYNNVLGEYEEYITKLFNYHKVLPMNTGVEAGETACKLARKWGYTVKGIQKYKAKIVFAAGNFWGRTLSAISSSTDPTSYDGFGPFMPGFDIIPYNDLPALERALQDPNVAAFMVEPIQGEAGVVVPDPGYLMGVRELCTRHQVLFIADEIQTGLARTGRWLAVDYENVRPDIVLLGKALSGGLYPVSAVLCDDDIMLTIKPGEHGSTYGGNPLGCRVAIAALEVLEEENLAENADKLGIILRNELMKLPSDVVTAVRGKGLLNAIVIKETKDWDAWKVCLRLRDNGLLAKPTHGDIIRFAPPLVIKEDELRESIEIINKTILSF

[1] = tested on: γ-aminobutyric acid aminotransferase (GABA-AT); conditions: cited from earlier work
CYP3A4/5 = test: CYP inhibition in human liver microsomes; format: in vitro ADME; conditions: 0.1 to 100 μM
[2] = tested on: Cerep panel of 111 pharmacological targets; test: Cerep panel
[3] = tested on: aspartate aminotransferase; test: Inhibition of aspartate aminotransferase; format: biochemical; conditions: even at 6 mM concentration
alanine aminotransferase = test: Inhibition of alanine aminotransferase; format: biochemical; conditions: even at 6 mM concentration
[4] = tested on: Salmonella typhimurium (TA98, TA100, TA1535, and TA1537) and Escherichia coli (WP2uvrA); test: In vitro bacterial reverse mutation assay; conditions: up to 5000 μg per plate, presence or absence of S9
[5] = tested on: three human GABA transporters; test: Binding to GABA transporters (summary statement)
GABAA = test: Binding to GABAA
[6] = in vivo
Description: Each dose cohort consisted of 8 subjects. […] Subjects were followed for safety for a 30-day period after receiving their single dose of study treatment.
Dose escalation can continue until completion of the 500 mg dose cohort.

[7] = 4-week oral (gavage) toxicology/toxicokinetic study in dogs
Description: Dogs received test article once daily for at least 4 weeks at a dose volume of 7 mL/kg followed by a 4-week recovery period.
Assessment of toxicity was based on mortality, clinical observations, body weights, body weight gain, food consumption, physical examinations, vital signs (heart rate, respiration, and body temperature), ophthalmology examinations, electrocardiogram examinations, clinical and anatomic pathology, and left eye evaluation.

GABAC = test: Binding to GABAC
[8] = 4-week oral (gavage) toxicology/toxicokinetic study in rats
Description: Rats received test article once daily for at least 4 weeks at a dose volume of 10 mL/kg followed by a 4-week recovery period.

CYP1A2 = conditions: concentrations up to 100 μM, 3 days
[9] = tested on: human peripheral blood lymphocytes (HPBL); test: In vitro mammalian chromosome aberration test; format: cell-based; conditions: 535, 1070, and 2140 μg/mL, absence and presence of S9
Description: CPP-115 was tested in the in vitro mammalian chromosome aberration test using human peripheral blood lymphocytes (HPBL) in both the absence and presence of an Aroclor-induced rat liver S9 metabolic activation system.

Hep3B cells = test: Alpha-fetoprotein (AFP) secretion in HCC cells; format: cell-based, human
[10] = molecular target: T2, ornithine aminotransferase (OAT) (Homo sapiens, UniProt P04181); test: Continuous coupled OAT assay (PYCR1/NADH), inhibition of OAT; format: biochemical; conditions: FIG. 2
T2 sequence (P04181 36-439 limits assumed): T1 sequence (P04181 36-439 limits assumed)
From the text: With these two assays in hand, the activity of a variety of compounds made previously as potential inhibitors of GABA-AT were investigated.

[11] = tested on: γ-aminobutyric acid aminotransferase (GABA-AT); test: Inhibition/inactivation of GABA-AT; format: biochemical
Safety of 13 in mice = format: in vivo, C57Bl/6 mice; conditions: 0.5-5 mg/kg, two doses on days 1 and 4, tested a week later; data not shown
HepG2 = test: Suppression of AFP levels in HCC cells; format: cell-based; conditions: HepG2, data not shown
[12] = molecular target: T2, ornithine aminotransferase (OAT); test: Time-dependent inactivation of OAT and dialysis of the inactivated enzyme; format: biochemical; conditions: no activity returned upon dialysis for 48 h
Description: OAT activity assays were carried out using as follows.
OAT incubated without the inactivator serves as a control. After 24 h, the enzyme solutions are transferred to a D-Tube™ Mini dialyzer and exhaustively dialyzed against the buffer (100 mM pyrophosphate buffer containing 0.1 mM alpha-ketoglutarate and 0.1 mM PLP, pH 8.0) at 4° C. protected from light. The dialysis buffer is exchanged three times every 4 h and left overnight. After 48 h of dialysis, the remaining OAT activity in each of the solutions is assayed.
For the determination of KI and kinact values, the natural logarithm of the percentage of remaining OAT activity is plotted against the pre-incubation time at each inhibitor concentration to obtain the kobs (slope) value for each concentration. The kobs is the rate constant describing the inactivation at each inhibitor concentration. kobs is re-plotted against the inhibitor concentration using nonlinear regression analysis (Graph-Pad Prism 6; GraphPad Software Inc.). kinact and the KI were estimated from the equation below: […], where kinact is the maximal rate of inactivation, KI is the inhibitor concentration required for half-maximal inactivation, and [I] is the pre-incubation concentration of inhibitor. […] The initial rate constants for the inactivation at various concentrations of the two compounds are determined using nonlinear regression analysis.

[13] = tested on: hepatocellular carcinoma (HCC); conditions: HCC patients, cited from earlier work; for response rates: single agent
[14] = rat, in vivo
Description: At the conclusion of dosing, rats entered a wash-out period (5-7 days) after which electroretinograms (ERGs) for scotopic (rod), mesopic (standard combined), photopic (cone), and 10 Hz and 15 Hz3 flicker ERG responses were collected for both eyes from each rat.
Quantitative histological examinations of retinas of the rats from this study were also carried out. Cone receptors were stained with a cone arrestin antibody and counterstained with a red stain for visualization and counting. Retinal sections were also stained with H&E and the ONL nuclei counts and ONL thicknesses were determined.

HepA1-6 [15] = test: Alpha-fetoprotein (AFP) secretion in HCC cells; format: cell-based
Description: (§1) Alpha-fetoprotein (AFP) secretion was evaluated as a biomarker for HCC. […] Within seven days of a single dose to HCC-harboring mice, AFP serum levels decreased by 92% in comparison with a 9.7 fold increase in controls (FIG. 5C).

PLC/PRF/5 [16] = test: Alpha-fetoprotein (AFP) secretion in HCC cells; format: cell-based
[17] = tested on: human hepatoma Hep3B cells; test: Effect of gabaculine on HCC growth in vivo; set-up: species or system Athymic Balb/C mice
Description: as §1
Athymic Balb/C mice were conditioned with sub-lethal radiation (400 cGy). At 24 h after irradiation, animals were injected subcutaneously at the right shoulder with 5×10^6 human hepatoma Hep3B cells. Blood samples were obtained weekly by retrobulbar puncture, and serum was separated and frozen at −20° C. until assayed. On day 45 the mice were divided into two groups (n=8 per treated and controls) and baseline serum AFP was measured. […] Mice in the control group were injected with saline. AFP serum levels, which correlate with tumor growth, were measured on day 52 using a standard Elisa test.

PLC/PRF/5 [18] = test: HCC proliferation, 3H-thymidine assay; format: cell-based; conditions: PLC/PRF/5, 48 h after exposure to 20 mM gabaculine
HepA1-6 [19] = test: HCC proliferation, 3H-thymidine assay; format: cell-based; conditions: HepA1-6, 48 h after exposure to 20 mM gabaculine
Hep3B = test: HCC proliferation, 3H-thymidine assay; format: cell-based, human; conditions: 48 h after exposure to 20 mM gabaculine

Compound: C#CC(N)CCC(=O)O (stereo not drawn) [4-aminohex-5-ynoic acid]
- inactivation/inhibition of OAT (known compounds) (OAT): also inactivate OAT with equal potency
- inactivation/inhibition of GABA-AT (known compounds) ([1]; prior art, FIG. 1): inactivators of GABA-AT

Compound: NC(CF)CC[C@H](N)C(=O)O (stereo partly drawn) [5-Fluoromethylornithine]
- inactivation/inhibition of OAT (known compounds) (OAT): irreversible inhibitors of OAT

Compound: N[C@H]1C[C@@H](C(=O)O)CC1=C(F)F [CPP-115, (1S,3S)-3-amino-4-difluoromethylenyl-1-cyclopentanoic acid]
- direct inhibition of CYP3A4/5 (CYP3A4/5): little or no evidence of direct inhibition
- activity in the Cerep panel of 111 pharmacological targets [2]: not active
- inhibition of aspartate aminotransferase [3]: does not inhibit
- inhibition of alanine aminotransferase (alanine aminotransferase): does not inhibit
- mutagenicity (reverse mutations) [4]: not mutagenic; also recorded: no mutations
- binding to three human GABA transporters [5]: does not bind
- binding to GABAA (GABAA): does not bind
- elimination half-life ([6]; human, po): 4 to 6 h
- AUCs versus dose [6]: greater than proportional increase
- cmax versus dose [6]: increased in a dose proportional manner
- time to peak blood concentration ([6]; po): approximately 30 minutes
- Human Equivalent Dose [HED] of NOAEL ([7]; dogs): 1.24 mg/kg/day
- no-observed-effect-level (NOEL) ([7]; females): 0.7 mg/kg/day
- no-observed-effect-level (NOEL) ([7]; males): 2.3 mg/kg/day
- binding to GABAC (GABAC): does not bind
- increases in Cmax and AUC0-t with dose ([8]; 2, 6, 20 mg/kg/day oral): generally dose proportional
- adverse microscopic finding ([8]; 6 or 20 mg/kg/day, dosing and recovery phases): retinal dysplasia
- hepatic extraction and tissue distribution ([8]; after oral administration): may not be highly extracted by the liver and may highly distribute to the tissues
- accumulation after multiple dosing ([8]; oral once daily, 4 weeks): No accumulation
- Human Equivalent Dose [HED] of NOAEL ([8]; rats): 0.96 mg/kg/day
- induction of CYP1A2 activity (CYP1A2): not an inducer
- chromosome aberrations [9]: not elastogenic; also recorded: no mutations or chromosomal aberrations

Compound: COc1ccc(CN2C(=O)[C@H]3CC(=C(F)F)[C@@H]2C3)cc1 [Compound 13]
- suppression of AFP levels / HCC tumor growth in vitro (Hep3B cells; Hep3B, data not shown): profound suppression
- Ki [10]: 3 µM
- inhibition of / binding to OAT, in words [10]: most potent inhibitor
- inhibition of GABA-AT ([11]; even at 10 mM concentration): does not inhibit GABA-AT
- liver enzymes, weight, behavior, and fur look (Safety of 13 in mice): none of the tested doses were there any notable effects
- suppression of AFP levels / HCC tumor growth in vitro (HepG2): profound suppression
- efficiency/potency as time-dependent irreversible inhibitor (inactivator) of OAT [12]: most efficient

Compound: NC1CC(C(=O)O)CC1=C(Cl)Cl (stereo not drawn) [Compound 18]
- inhibition of / binding to OAT, in words [10]: very weak binder
- binding to GABA-AT [11]: very weak binder

Compound: Cl.N[C@H]1C[C@@H](C(=O)O)C/C1=C\F [Compound 20, (E)-(1S,3S)-3-Amino-4-fluoromethylenyl-1-cyclopentanoic acid, hydrochloride salt]
- time-dependent inhibition of GABA-AT [11]: potent time-dependent inhibitors of GABA-AT

Compound: Cl.N[C@H]1C[C@@H](C(=O)O)C/C1=C/F [Compound 22, (Z)-(1S,3S)-3-Amino-4-fluoromethylenyl-1-cyclopentanoic acid, hydrochloride salt]
- time-dependent inhibition of GABA-AT [11]: potent time-dependent inhibitors of GABA-AT

Compound: NCCCC(=O)O [GABA, γ-aminobutyric acid]
- inactivation/inhibition of OAT (known compounds) (OAT): competitive inhibitor of OAT

Compound: NOCC[C@H](N)C(=O)O [L-canaline]
- inactivation/inhibition of OAT (known compounds) (OAT): irreversible inhibitors of OAT

Compound: CCCCCOC(=O)Nc1nc(=O)n([C@@H]2O[C@H](C)[C@@H](O)[C@H]2O)cc1F [capecitabine]
- response rates in clinical trials [13]: low and short term

Compound: N.N.[Cl][Pt][Cl] [cisplatin]
- response rates [13]: about 10%

Compound: COc1cccc2c1C(=O)c1c(O)c3c(c(O)c1C2=O)C[C@@](O)(C(=O)CO)C[C@@H]3O[C@H]1C[C@H](N)[C@H](O)[C@H](C)O1 [doxorubicin]
- response rates [13]: about 10%

Compound: O=c1[nH]cc(F)c(=O)[nH]1 [fluorouracil]
- response rates [13]: about 10%

Compound: Nc1ccn([C@@H]2O[C@H](CO)[C@@H](O)C2(F)F)c(=O)n1 [gemcitabine]
- response rates in clinical trials [13]: low and short term

Compound: C=CC(N)CCC(=O)O (stereo not drawn) [vigabatrin, Vigabatrin, reference compound]
- inactivation/inhibition of OAT (known compounds) (OAT): does not inactivate OAT
- cone receptor counts [14]: no statistically significant change

Compound: Gabaculine
- decrease of AFP secretion (Hep3B cells; Hep3B cells): 20%
- AFP suppression (HepA1-6 [15]): No significant differences
- AFP suppression (PLC/PRF/5 [16]): No significant differences
- tumor growth in vivo ([17]; HCC-harboring mice): significantly suppressed tumor growth in vivo
- decrease of AFP serum levels ([17]; within seven days of a single dose (500 microgram/kg i.p.)): 92%
- suppression of proliferation (PLC/PRF/5 [18]): 46-51%
- inactivation/inhibition of GABA-AT (known compounds) [1]: inactivators of GABA-AT
- suppression of proliferation (HepA1-6 [19]): 46-51%
- suppression of proliferation (Hep3B): 46-51%
